Among the data in patent publication US20250099448A1, “HETEROCYCLIC COMPOUNDS” (Hoffmann-La Roche Inc., priority 2022, published 2025) are IC50 values, retold here.

The target in this assay is T1, MAGL protein (Homo sapiens, UniProt Q99685).
T1 sequence (Q99685 1-303): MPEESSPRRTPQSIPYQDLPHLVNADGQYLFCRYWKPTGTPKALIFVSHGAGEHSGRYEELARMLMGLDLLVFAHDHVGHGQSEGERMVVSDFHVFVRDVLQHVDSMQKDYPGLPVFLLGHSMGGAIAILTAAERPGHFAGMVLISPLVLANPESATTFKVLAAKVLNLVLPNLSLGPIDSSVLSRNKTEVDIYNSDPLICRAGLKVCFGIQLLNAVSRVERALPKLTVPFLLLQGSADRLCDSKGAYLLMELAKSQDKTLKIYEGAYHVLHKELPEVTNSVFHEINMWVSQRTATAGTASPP
In words: 2-AG assay: MAGL inhibitory activity by hydrolysis of 2-arachidonoylglycerol to arachidonic acid, followed by mass spectrometry. The settings on record: 8 μM 2-arachidonoylglycerol, 15 min preincubation, 30 min reaction at RT, RapidFire MS readout. Format: biochemical. The method, boiled down:
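MAGL was preincubated 15 min at RT with compound (12.5 to […], 3-fold steps) in 50 mM TRIS, 1 mM EDTA, 0.01% Tween-20, 2.5% DMSO. The reaction ran 30 min at RT with 8 μM 2-AG. Arachidonic acid was quantified by RapidFire SPE-MS/MS against a d8-arachidonic acid internal standard.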

pIC50: −log10 of the molar value.

`O=C(N1CC2(CC(c3nnc(C4CC4)[nH]3)C2)C1)N1CC2(CN(Cc3ccc(C(F)(F)F)nn3)C2)C1` [compound 160]: the negative logarithm of the IC50 (pIC50) was 7.21.
`O=C(N1CC2(CC(c3nnc(C4CC4)[nH]3)C2)C1)N1CC2(CN(Cc3ncc(C(F)(F)F)cn3)C2)C1` [compound 161]: the pIC50 was 7.10.
The compound `O=C(N1CC2(CC(c3nnc(C4CC4)[nH]3)C2)C1)N1CC2(CN(Cc3cnc(C(F)(F)F)nc3)C2)C1` [compound 162] had a pIC50 of 7.49.
`O=C(N1CC2(CC(c3nnc(C4CC4)[nH]3)C2)C1)N1CC2(CN(Cc3ccc(C(F)(F)F)cn3)C2)C1` [compound 163] gave a pIC50 of 8.39.
For `O=C(N1CC2(CC(c3nnc(C4CC4)[nH]3)C2)C1)N1CC2(CN(Cc3cnc(C(F)(F)F)cn3)C2)C1` [compound 164] the value was 7.74; for `O=C(N1CC2(CC(c3nnc(C4CC4)[nH]3)C2)C1)N1CC2(CN(Cc3ncc(F)cc3F)C2)C1` [compound 165], 7.51; for `O=C(N1CC2(CC(c3nnc(C4CC4)[nH]3)C2)C1)N1CC2(CN(Cc3ccc(F)cc3C(F)(F)F)C2)C1` [compound 169], 9.21.
Compound `NS(=O)(=O)c1ccccc1CN1CC2(C1)CN(C(=O)N1CC3(CC(c4nnc(C5CC5)[nH]4)C3)C1)C2` [compound 170] had a negative logarithm of the IC50 (pIC50) of 7.55.
Compound `CNC(=O)c1ccccc1CN1CC2(C1)CN(C(=O)N1CC3(CC(c4nnc(C5CC5)[nH]4)C3)C1)C2` [compound 173] had a negative logarithm of the IC50 (pIC50) of 6.64.
For `COCn1cnc(-c2ccccc2CN2CC3(C2)CN(C(=O)N2CC4(CC(c5nnc(C6CC6)[nH]5)C4)C2)C3)n1` [compound 174], the negative-log IC50 (pIC50) is 7.39. This pIC50 lies 0.75 log units higher than the previous one.
For `COCn1ccnc1-c1ccccc1CN1CC2(C1)CN(C(=O)N1CC3(CC(c4nnc(C5CC5)[nH]4)C3)C1)C2` [compound 175] the value was 7.46; for `O=C(N1CC2(CCN(Cc3ccc(C(F)(F)F)nc3)CC2)C1)N1CC2(CC(c3nnc(C4CC4)[nH]3)C2)C1` [compound 176], 8.06.
Compound `O=C(N1CC2(CCN(Cc3ccc(C(F)(F)F)cc3F)CC2)C1)N1CC2(CC(c3nnc(C4CC4)[nH]3)C2)C1` [compound 177] had a pIC50 of 9.42. This pIC50 is 1.36 log units higher than that of the compound before.
For the compound `O=C(N1CC2(CCN(Cc3ccc(C(F)(F)F)cn3)CC2)C1)N1CC2(CC(c3nnc(C4CC4)[nH]3)C2)C1` [compound 178], the pIC50 is 8.74.
Compound `CS(=O)(=O)c1ccc(CN2CCC3(CC2)CN(C(=O)N2CC4(CC(c5nnc(C6CC6)[nH]5)C4)C2)C3)cc1` [compound 179] showed a negative-log IC50 (pIC50) of 7.47.
For the compound `O=C(N1CC2(CCN(Cc3cccc(S(=O)(=O)C(F)(F)F)c3)CC2)C1)N1CC2(CC(c3nnc(C4CC4)[nH]3)C2)C1` [compound 180], the negative logarithm of the IC50 (pIC50) was 9.04.
With `CS(=O)(=O)c1cccc(CN2CCC3(CC2)CN(C(=O)N2CC4(CC(c5nnc(C6CC6)[nH]5)C4)C2)C3)c1` [compound 181], the negative-log IC50 (pIC50) was 7.44.
Turning to `O=C(N1CC2(CC(c3nnc(C4CC4)[nH]3)C2)C1)N1CC2(CCN(Cc3ccc(C(F)(F)F)cn3)C2)C1` [compound 182], the pIC50 was 8.23.
Take `O=C(N1CC2(CC(c3nnc(C4CC4)[nH]3)C2)C1)N1CC2(CCN(Cc3ccc(C(F)(F)F)nn3)C2)C1` [compound 183]: the pIC50 is 7.50. Compared with the last compound, the pIC50 is 0.73 log units lower.
In turn, `O=C(N1CC2(CC(c3nnc(C4CC4)[nH]3)C2)C1)N1CC2(CCN(Cc3cnc(C(F)(F)F)cn3)C2)C1` [compound 184] showed a pIC50 of 7.93. Compared with the last compound, the pIC50 is 0.43 log units higher.
The compound `O=C(N1CC2(CC(NCc3ccc(C(F)(F)F)cc3F)C2)C1)N1CC2(CC(c3nnc(C4CC4)[nH]3)C2)C1` [compound 185] had a negative logarithm of the IC50 (pIC50) of 8.78. Against the preceding compound, the pIC50 is 0.85 log units higher.
`O=C(N1CC(NCc2cc(F)ccc2C(F)(F)F)C1)N1CC2(CC(c3nnc(C4CC4)[nH]3)C2)C1` [compound 187] had a pIC50 of 7.15.
For `O=C(N1CC(NCc2cc(C(F)(F)F)ccc2Cl)C1)N1CC2(CC(c3nnc(C4CC4)[nH]3)C2)C1` [compound 188] the value was 7.69; for `O=C(N1CC(NCc2ccc(OC(F)(F)F)cc2F)C1)N1CC2(CC(c3nnc(C4CC4)[nH]3)C2)C1` [compound 189], 7.41.

In general, pIC50 refers to the IC50 on a negative log10 scale, so that one unit is a factor of ten. Lower therefore signals a large IC50.
